Results from patent US9670147B2, “Antioxidant inflammation modulators: oleanolic acid derivatives with amino and other modifications at C-17” (REATA PHARMACEUTICALS, INC., priority 2008, dated 2017).
Blank lines part the entries; values can stand above or below the compound they belong to.

Tests used:
[1] = TP levels in mouse brain after feeding in diet, LC/MS; type: in vivo; settings: CD-1 mice, 200 or 400 mg/kg diet for 3.5 days
Experimental: FIG. 48. […] CD-1 mice were fed either 200 or 400 mg/kg diet of either TP-319 or TP-500 for 3.5 days, and TP levels in the brains of the mice were analyzed by LC/MS. The structures of TP-319 and TP-500 are shown herein.

HO-1 = assay: Nrf2 target gene induction in MDA-MB-435 cells, qPCR: HO-1; type: cell-based, human
Experimental: FIG. 43. Induction of HO-1. FIGS. 43A and 43B: MDA-MB-435 human melanoma cells were treated with vehicle (DMSO) or the indicated compounds and concentrations for 16 hours. HO-1 mRNA levels were quantified using qPCR and were normalized relative to a DMSO-treated sample run in parallel. Values are averages of duplicate wells. FIG. 43C: MDA-MB-435 cells were treated with vehicle (DMSO) or the indicated compounds at 400 nM for 16 hours. HO-1, TrxR1 and actin protein levels were assayed by immunoblotting. Actin served as a loading control.
(§1) FIGS. 44, 46 and 47—Induction of HO-1, TrxR1 and γ-GCS. FIGS. 44A-C, 46A-C, 47A-C: MDA-MB-435 human melanoma cells were treated with vehicle (DMSO) or the indicated compounds (400 nM) for 16 hours. HO-1, thioredoxin reductase-1 (TrxR1), and γ-glutamylcysteine synthetase (γ-GCS) mRNA levels were quantified using qPCR and were normalized relative to a DMSO-treated sample run in parallel. Values are averages of duplicate wells. FIGS. 44D, 46D, 47D: MDA-MB-435 cells were treated with vehicle (DMSO) or the indicated compounds at 400 nM for 16 hours. HO-1, TrxR1 and actin protein levels were assayed by immunoblotting.
(§2) FIG. 45. Induction of HO-1, TrxR1 and γ-GCS. FIGS. 45 A-C: MDA-MB-435 cells were treated with vehicle (DMSO) or the indicated compounds at 160 nM for 16 hours. HO-1, TrxR1, and γ-GCS mRNA levels were quantified by qPCR and were normalized relative to a DMSO-treated sample run in parallel. Values are averages of duplicate wells. FIGS. 44D, 46D, 47D: MDA-MB-435 cells were treated with vehicle (DMSO) or the indicated compounds at 160 nM for 16 hours. HO-1, TrxR1 and actin protein levels were assayed by immunoblotting.
(§3) MDA-MB-435 human melanoma cells were treated with vehicle (DMSO) or the indicated compounds and concentrations for 16 hours. HO-1, thioredoxin reductase-1 (TrxR1), γ-glutamylcysteine synthetase (γ-GCS), and ferritin heavy chain mRNA levels were quantified using qPCR and were normalized relative to a DMSO-treated sample run in parallel. Values are averages of duplicate wells. Primer sequences are as follows.

TrxR1 = assay: Nrf2 target gene induction in MDA-MB-435 cells, qPCR: TrxR1; type: cell-based, human; settings: 400 nM, 16 hours
Experimental: as §1, §2, §3

NQO1 = assay: Nrf2 target gene induction in MDA-MB-435 cells: NQO1; type: cell-based, human; settings: 250 nM
RAW264.7 macrophages = assay: Cell viability, WST-1 reagent; type: cell-based, mouse; settings: 2 h pre-treatment, then 20 ng/ml IFNγ for 24 hours
Method in brief: (§4)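 Mouse RAW264.7 macrophages pre-treated 2 h with compound (nM concentrations) or DMSO, then stimulated with 20 ng/ml recombinant mouse IFNγ for 24 h. Nitrite in medium measured by Griess reagent; viability by WST-1.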

γ-GCS = assay: Nrf2 target gene induction in MDA-MB-435 cells, qPCR: γ-GCS; type: cell-based, human
Experimental: as §1, §2, §3

[2] = test system: IFNγ-induced NO production in RAW264.7 macrophages; assay: Suppression of IFNγ-induced NO production (Griess reagent); type: cell-based, mouse; settings: 2 h pre-treatment, then 20 ng/ml IFNγ for 24 hours
Method in brief: as §4

Compound: CC1(C)CC[C@]2(C(=O)NCC(F)(F)F)CC[C@]3(C)[C@H](C(=O)C=C4[C@@]5(C)C=C(C#N)C(=O)C(C)(C)[C@@H]5CC[C@]43C)[C@@H]2C1 [CDDO-TFEA]
TP levels in the brains of the mice [1]: Higher Levels in Mouse Brain than CDDO-EA

Compound: CC1(C)CC[C@]2(O)CC[C@]3(C)[C@H](C(=O)CC4[C@@]5(C)C=C(C#N)C(=O)C(C)(C)[C@@H]5CC[C@]43C)[C@@H]2C1 (stereo partly drawn) [Compound 63208, (4aR,6aR,6bR,8aS,12aS,12bR,14bR)-8a-hydroxy-4,4,6a,6b,11,11,14b-heptamethyl-3,13-dioxo-3,4,4a,5,6,6a,6b,7,8,8a,9,10,11,12,12a,12b,13,14,14a,14b-icosahydropicene-2-carbonitrile]
HO-1 induction (HO-1; 250 nM): 1.1 fold induction above DMSO control | NQO1 induction (NQO1): 1.7 fold induction above DMSO control | γ-GCS induction (γ-GCS; 250 nM): 3.2 fold induction above DMSO control

More lines, main results first:

IC50 ([2]; Mus musculus): ~30 nM
Compound: CC1(C)CC[C@]2(N)CC[C@]3(C)[C@H](C(=O)C[C@@H]4[C@@]5(C)C=C(C#N)C(=O)C(C)(C)[C@@H]5CC[C@]43C)[C@@H]2C1 [Compound 63198, (4aR,6aR,6bR,8aS,12aS,12bR,14aR,14bR)-8a-amino-4,4,6a,6b,11,11,14b-heptamethyl-3,13-dioxo-3,4,4a,5,6,6a,6b,7,8,8a,9,10,11,12,12a,12b,13,14,14a,14b-icosahydropicene-2-carbonitrile]
HO-1 induction (HO-1; 250 nM): 1.4 fold induction above DMSO control | HO-1 induction (HO-1; 400 nM, 16 hours): 2% of induction observed for RTA 402 | TrxR1 induction (TrxR1): 71% of induction observed for RTA 402 | NQO1 induction (NQO1): 1.8 fold induction above DMSO control | IC50 (RAW264.7 macrophages; Mus musculus): > 200 nM | γ-GCS induction (γ-GCS; 250 nM): 2.8 fold induction above DMSO control

IC50 ([2]; Mus musculus): ~15 nM
Compound: CC1(C)CC[C@]2(NS(C)(=O)=O)CC[C@]3(C)[C@H](C(=O)C[C@@H]4[C@@]5(C)C=C(C#N)C(=O)C(C)(C)[C@@H]5CC[C@]43C)[C@@H]2C1 [Compound 63215, N-((4aS,6aR,6bR,8aR,12aR,12bR,14aR,14bS)-11-cyano-2,2,6a,6b,9,9,12a-heptamethyl-10,14-dioxo-1,2,3,4,4a,5,6,6a,6b,7,8,8a,9,10,12a,12b,13,14,14a,14b-icosahydropicen-4a-yl)methanesulfonamide]
HO-1 induction (HO-1; 250 nM): 1.7 fold induction above DMSO control | HO-1 induction (HO-1; 400 nM, 16 hours): 1% of induction observed for RTA 402 | TrxR1 induction (TrxR1): 36% of induction observed for RTA 402 | NQO1 induction (NQO1): 1.7 fold induction above DMSO control | IC50 (RAW264.7 macrophages; Mus musculus): > 200 nM | γ-GCS induction (γ-GCS; 250 nM): 3.8 fold induction above DMSO control | γ-GCS induction (γ-GCS; 400 nM, 16 hours): 21% of induction observed for RTA 402

IC50 [2]: ~25 nM
Compound: N-((4aS,6aR,6bR,8aR,12aR,12bR,14aR,14bS)-11-cyano-2,2,6a,6b,9,9,12a-heptamethyl-10,14-dioxo-1,2,3,4,4a,5,6,6a,6b,7,8,8a,9,10,12a,12b,13,14,14a,14b-icosahydropicen-4a-yl)-2,2,2-trifluoroethanesulfonamide [Compound 63254]
HO-1 induction (HO-1; 250 nM): 2 fold induction above DMSO control | NQO1 induction (NQO1): 1.7 fold induction above DMSO control | IC50 (RAW264.7 macrophages): > 200 nM | γ-GCS induction (γ-GCS; 250 nM): 3 fold induction above DMSO control
